Data published in patent publication US10711000B2 (Fronthera U.S. Pharmaceuticals LLC, priority 2018, dated 2020).
pIC50: −log10 of the molar value. Like-named read-outs stand apart in the source and are kept apart here.

Molecular target: T1, Autotaxin (Homo sapiens, UniProt Q13822)
T1 construct: from tissue; host or cells: pooled human plasma
Experiment: LPA formation in pooled human plasma (ex vivo autotaxin inhibition)
Type: biochemical
Conditions: 2 hours incubation
Procedure: Autotaxin is a plasma phosphodiesterase that converts lysophosphatidylcholine (LPC) into lysophosphatidic acid (LPA), therefore LPA formation was used to evaluate the potency of autotaxin inhibitors. The potency of compound was evaluated ex vivo in pooled human plasma.
Various concentrations of compound were incubated with plasma for 2 hours, and the LPA 18:2 and 20:4 concentration was measured by LC/MS/MS. To determine the LPA18:2 or 20:4 concentration in study plasma, a 10× calibration standard of LPA 18:2 or 20:4 were prepared by serial dilution in butyl alcohol: 20000, 10000, 5000, 2000, 1000, 500, 200, 100, 50, 20, and 10 ng/mL. 3 μL of calibration standard solution was added into 27.0 μL of blank plasma in 1.5-mL microcentrifuge tubes to generate 1× calibration standards. The 30.0 μL of standards or study plasma was added into 1.5-mL microcentrifuge tubes. 200 μL of butyl alcohol (containing 25.0 ng/mL LPA17:0 for internal control) was added into each 1.5-mL microcentrifuge tube containing study plasma or calibration standards. After vortexing for 1 minute and centrifuging at 10000 rpm for 10 min, 180 μL of supernatant was transferred into a 96-well plate and the LPA18:2 concentration in the plasma was quantitated using LC/MS/MS together with standards. Briefly, 8 μL of the solutions were injected for LC-MS/MS analysis using an ACQUITY UPLC BEH C18 column (2.1×50 mm, 1.7 μm) with mobile phase A [20 mM NH4OAC in water (0.1% FA)] and phase B [5 mM NH4OAC in water/0.2% FA in ACN=5:95]. Mass spectrometer parameters optimization for LPA18:2 were performed by Deprotonated molecular ion at m/z 433.2 ([M−H]^−) for LPA18:2, 457.2 for LPA20:4 and abundant product ion at m/z 152.8 for both LPA18:2 and LPA20:4 were obtained. Quantitative data were acquired in multiple reaction monitoring (MRM) negative electrospray ionization mode
The inhibition rate of LPA formation was determined by comparing the levels of LPA in treated and non-treated plasma. The data was plotted against the corresponding concentration of compound and the IC50 was calculated through non-linear regression fitting.

[1] = LPA 18:2 by LC/MS/MS, read-out: LPA formation (18:2) (IC50)
[2] = LPA 20:4 by LC/MS/MS, read-out: LPA formation (20:4) (IC50)

## CCc1nn2ccc(N3CCC4(CN(C(=O)N5CC(O)C5)C4)C3)cc2c1N(C)c1nc(-c2ccc(F)cc2)c(C#N)s1 [Example 16, 2-((2-ethyl-5-(2-(3-hydroxyazetidine-1-carbonyl)-2,6-diazaspiro[3.4]octan-6-yl)pyrazolo[1,5-a]pyridin-3-yl)(methyl)amino)-4-(4-fluorophenyl)thiazole-5-carbonitrile]
[1]
  pIC50: ≥ 7.00
[2]
  pIC50: ≥ 7.00

## CCc1nn2ccc(N3CC4(CN(C(=O)[C@H]5CCOC5)C4)C3)cc2c1N(C)c1nc(-c2ccc(F)cc2)c(C#N)s1 [Example 10, (S)-2-((2-ethyl-5-(6-(tetrahydrofuran-3-carbonyl)-2,6-diazaspiro[3.3]heptan-2-yl)pyrazolo[1,5-a]pyridin-3-yl)(methyl)amino)-4-(4-fluorophenyl)thiazole-5-carbonitrile]
[1]
  pIC50: ≥ 7.00
[2]
  pIC50: ≥ 7.00

## CCc1nn2c(C)cc(N3CC4(CN(C(=O)[C@@H](C)O)C4)C3)cc2c1N(C)c1nc(-c2ccc(F)cc2)c(C#N)s1 [Example 63, (R)-2-((2-ethyl-5-(6-(2-hydroxypropanoyl)-2,6-diazaspiro[3.3]heptan-2-yl)-7-methylpyrazolo[1,5-a]pyridin-3-yl)(methyl)amino)-4-(4-fluorophenyl)thiazole-5-carbonitrile]
[1]
  pIC50: 6.30 to 7.00
[2]
  pIC50: 6.30 to 7.00

## [2H]c1cc(N2CCN(CC(=O)N3CC(O)C3)CC2)cc2c(N(C)c3nc(-c4ccc(F)cc4)c(C#N)s3)c(CC)nn12 [Example 19, 2-((2-ethyl-5-(4-(2-(3-hydroxyazetidin-1-yl)-2-oxoethyl)piperazin-1-yl)pyrazolo[1,5-a]pyridin-3-yl-7-d)(methyl)amino)-4-(4-fluorophenyl)thiazole-5-carbonitrile]
[1]
  pIC50: ≥ 7.00
[2]
  pIC50: ≥ 7.00

## Cc1cc(N2CCN(CC(N)=O)CC2)cc2c(N(C)c3nc(-c4ccc(F)cc4)c(C#N)s3)c(C3CC3)nn12 [Example 79]
[1]
  pIC50: 6.00 to 6.30
[2]
  pIC50: 6.00 to 6.30

## Cc1cc(N2CCN(C3COC3)CC2)cc2c(N(C)c3nc(-c4ccc(F)cc4)c(C#N)s3)c(C3CC3)nn12 [Example 94, 2-((2-cyclopropyl-7-methyl-5-(4-(oxetan-3-yl)piperazin-1-yl)pyrazolo[1,5-a]pyridin-3-yl)(methyl)amino)-4-(4-fluorophenyl)thiazole-5-carbonitrile]
[1]
  pIC50: 6.30 to 7.00
[2]
  pIC50: 6.00 to 6.30

## CCc1nn2ccc(N3CCN(CC(=O)N4CC(O)C4)CC3)cc2c1N(C)c1nc(-c2ccc(F)cc2)c(C#N)s1 [Example 1, 2-((2-ethyl-5-(4-(2-(3-hydroxyazetidin-1-yl)-2-oxoethyl)piperazin-1-yl)pyrazolo[1,5-a]pyridin-3-yl)(methyl)amino)-4-(4-fluorophenyl)thiazole-5-carbonitrile]
[1]
  pIC50: ≥ 7.00
[2]
  pIC50: ≥ 7.00

## CCc1nn2c(C)cc(N3CC4(CN(C(=O)C5CCN(C)CC5)C4)C3)cc2c1N(C)c1nc(-c2ccc(F)cc2)c(C#N)s1 [Example 33, 2-((2-ethyl-7-methyl-5-(6-(1-methylpiperidine-4-carbonyl)-2,6-diazaspiro[3.3]heptan-2-yl)pyrazolo[1,5-a]pyridin-3-yl)(methyl)amino)-4-(4-fluorophenyl)thiazole-5-carbonitrile]
[1]
  pIC50: ≥ 7.00
[2]
  pIC50: 6.30 to 7.00

## CCc1nn2ccc(N3CC4(CC4C(=O)N4CC(O)C4)C3)cc2c1N(C)c1nc(-c2ccc(F)cc2)c(C#N)s1 (centres unmarked) [Example 7, 2-((2-ethyl-5-(1-(3-hydroxyazetidine-1-carbonyl)-5-azaspiro[2.3]hexan-5-yl)pyrazolo[1,5-a]pyridin-3-yl)(methyl)amino)-4-(4-fluorophenyl)thiazole-5-carbonitrile]
[1]
  pIC50: 6.30 to 7.00
[2]
  pIC50: 6.30 to 7.00

## Cc1cc(N2CC3(CN(C(=O)C45CC(C4)C5)C3)C2)cc2c(N(C)c3nc(-c4ccc(F)cc4)c(C#N)s3)c(C3CC3)nn12 [Example 91, 2-((5-(6-(bicyclo[1.1.1]pentane-1-carbonyl)-2,6-diazaspiro[3.3]heptan-2-yl)-2-cyclopropyl-7-methylpyrazolo[1,5-a]pyridin-3-yl)(methyl)amino)-4-(4-fluorophenyl)thiazole-5-carbonitrile]
[1]
  pIC50: 6.30 to 7.00
[2]
  pIC50: 6.30 to 7.00
